One block for each compound: values may come before it.
Tests used:
[1] = tested on: metalloproteinase activity in human saliva samples; experiment: Proteinase activity assay in saliva with DQ-gelatin (fluorometry); type: biochemical; details: compared with BB-94
Protocol: Proteinase activity assay: Total proteolytic activity in saliva samples was measured by fluorometry using the generic substrate DQ-gelatin (Molecular Probes Inc). An aliquot (usually 50 μl per 160 μl total assay volume) of each sample was mixed with substrate (10 μg/ml) in tricine buffer (50 mM Tricine, pH 7.4; 200 mM NaCl; 10 mM CaCl2; 0.05 mM ZnSO4; 0.005% Brij 35) and incubated at 37° C. An inhibitor cocktail comprising of inhibitors of serine, cysteine and aspartyl proteinases (‘Complete—EDTA free’, Roche Biochemicals, San Diego, Calif.) was included in the reactions for all the human saliva samples. Fluorometric measurements (excitation at 485 nm and emission at 538 nm) recorded every 10-20 minutes for 2 hours. These values were used to calculate an initial rate of enzyme activity (Fluorescence units/minute) which, for the murine samples, was then normalized for amylase concentration. To measure non-metalloproteinase activity, EDTA at a concentration of 30 mM was included in the assay mixture. Metalloproteinase (MP) activity was then determined as total less the EDTA-inhibited activity. Similarly, matrix metalloproteinase (MMP) activity, defined as the BB-94-inhibitible activity, was determined by subtracting the activity in the presence of BB-94 (25 μM) from total proteinase activity. […]

[2] = tested on: MMP9 specific bands (gelatinolytic activity) in saliva; details: control gels treated with EDTA
Protocol: Zymography: 20 μl of each saliva sample was mixed with 5 μl of a sample buffer containing 250 mM Tris pH 6.8, 25% glycerol, 10% (w/v) SDS, 0.01% bromophenol blue and loaded onto 10% SDS-PAGE gels containing 0.25% porcine gelatin (Sigma). Molecular weight markers (Biowhittaker Molecular Applications, Rockland, Me., USA) and a positive control sample of conditioned medium from the human fibrosarcoma cell line HT-1080 were also included on the gel. Following electrophoresis, the gels were washed twice for 15 mins each in 2.5% Triton X-100 and then incubated overnight at 37° C. in a substrate buffer containing 50 mM Tris-HCl, pH 7.6 and 10 mM CaCl2 in the absence or presence of proteinase inhibitors EDTA (30 mM), BB-94 (20 μM), BMS-275291 (20 μM) or B428 (20 μM). Following incubation, the gels were stained with a solution of 0.5% (w/v) Coomassie Blue R250 prepared in 50% methanol: 10% acetic acid. Once stained, the gels were briefly de-stained in the same solution without the Coomassie Blue and then stored in distilled water. Areas of gelatinolytic activity appeared cleared against the blue background of the coomassie-stained undigested gelatin.

[3] = tested on: sheddases, proteinases of the ADAM family; details: cited from earlier work

inhibition of salivary metalloproteinase activity (DQ-gelatin cleavage) [1]: results comparable to those with BB-94
Compound: CNC(=O)[C@@H](NC(=O)[C@H](CC(C)C)NC(=O)[C@@H](S)CCN1C(=O)N(C)C(C)(C)C1=O)C(C)(C)C [BMS-275291]

Compound: O=C(O)CN(CCN(CC(=O)O)CC(=O)O)CC(=O)O [EDTA]
gelatinolytic bands on zymography gels [2]: showed no bands

Compound: CNC(=O)[C@H](Cc1ccccc1)NC(=O)[C@H](CC(C)C)[C@H](CSc1cccs1)C(=O)NO [BB-94]
activity against sheddases [3]: activity against sheddases

— US20080254490A1, “Salivary Protease Assays for Identifying Increased Risk of Preterm Delivery Induced by Premature Rupture of Fetal Membranes” (priority 2005, published 2008)
